From publication PMC12211128, “Safety, tolerability, pharmacokinetic and pharmacodynamic effects of the muscarinic M1 positive allosteric modulator VU0467319 for Alzheimer’s disease: a single ascending-dose study in healthy participants” (Alzheimer's Research & Therapy, 2025)

Assay: Urine pharmacokinetics, single ascending dose and food effect studies
Format: in vivo, human
Settings: for CLR (renal clearance) / Max_Rate (maximum observed excretion rate) / Total %fe / Total Ae: mean (SD); for Max_Rate (maximum observed excretion rate) / Total %fe / Total Ae / Tmax_Rate: urine; for Tmax_Rate: median (min, max)
Method: Blood samples (4 mL) were obtained by direct venipuncture into K2 EDTA tubes at 0.5 h pre-dose and at 0.5, 1, 1.5, 2, 2.5, 3, 5, 7, 9, 12, 24, 26, 28, 36, 48 and 144-hours post-dose. […] Urine samples for PK quantification were collected at pre-dose and 2, 5, 12, 24, 36 and 144-hours post-dose.
Determination of plasma and urine concentrations of VU319 and metabolite VU0481424 (VU424) was carried out in compliance with Good Laboratory Practice using a validated method at Illinois Institute of Technology Research Institute (IITRI) laboratories. Pharmacokinetic endpoints included the following VU319 parameters for plasma: area under the plasma concentration-time curve (AUC0 − 48); area under the plasma concentration-time curve extrapolated to infinity (AUC0−∞); percentage of the extrapolated area under the plasma concentration-time curve (%AUCextrap); maximum observed plasma concentration (Cmax); time (in hours) at which Cmax occurred (Tmax); clearance (Cl/F); elimination half-life (t1/2) and volume of distribution (Vd/F). Pharmacokinetic endpoints for VU319 for urine included the following parameters: renal clearance (CLu); amount excreted in urine (Ae) and percent excreted in urine (Ae%).
Single-dose PK parameters were derived from the plasma time concentrations and urinary concentrations. Pharmacokinetic parameters were summarized for each dose group using standard descriptive statistics. Summary statistics (mean, SD, min, max, coefficient of variation %) were calculated for each PK parameter. Plasma samples collected outside of the permitted windows (± 5 min for 0 to 48 h, inclusive; ±3 h for 72 to 144 h, inclusive) were flagged, footnoted in listings of PK concentration data, and excluded from the summary statistics and mean graphs of concentration data. However, these values were used in the calculation of the PK parameters and were also included in the individual concentration/time listings and figures. In this study, no concentration values were excluded due to implausibility.
Missing pre-dose PK concentrations were imputed as 0 in PK parameter calculations. Otherwise, missing data were not imputed. Actual post-dose sampling times were used in the calculation of plasma PK parameters and in the generation of individual concentration-time profiles. Nominal sampling times were used as a replacement for unknown or missing actual times and for the pre-dose values. Nominal sampling timepoints were used in the generation of mean plots and summary tables. For urine samples, nominal intervals were used. All PK analyses were performed using Statistical Analysis Software (SAS®; SAS Institute Inc., Cary, NC) version 9.4.

[1] = VU319 120 mg oral, fasted, food effect study
[2] = VU319 120 mg oral, fed, food effect study

SMILES: Cn1cc2c(-c3cc(F)c(CN4Cc5ncccc5C4=O)c(F)c3)cccc2n1 [VU319]
- CLR (renal clearance) (VU319 60 mg oral, SAD): 1.25 (0.303) mL/h
- CLR (renal clearance) (VU319 120 mg oral, SAD): 1.16 (0.537) mL/h
- CLR (renal clearance) [1]: 1.24 (0.36) mL/h
- CLR (renal clearance) [2]: 1.48 (0.4) mL/h
- CLR (renal clearance) (VU319 240 mg oral, SAD): 1.13 (0.657) mL/h
- CLR (renal clearance) (VU319 400 mg oral, SAD): 0.97 (0.42) mL/h
- CLR (renal clearance) (VU319 600 mg oral, SAD): 0.673 (0.34) mL/h
- Total %fe (fraction of the dose excreted unchanged in urine) (all dose levels): < 0.1%
- Max_Rate (maximum observed excretion rate) (VU319 60 mg oral, SAD): 0.0024 (0.0012) mg/h
- Total %fe (VU319 60 mg oral, SAD): 0.075 (0.034) %
- Total Ae (VU319 60 mg oral, SAD): 0.045 (0.021) mg
- Tmax_Rate (VU319 60 mg oral, SAD): 3.5 (3.5, 8.5) h
- Max_Rate (maximum observed excretion rate) (VU319 120 mg oral, SAD): 0.0032 (0.0025) mg/h
- Total %fe (VU319 120 mg oral, SAD): 0.051 (0.026) %
- Total Ae (VU319 120 mg oral, SAD): 0.061 (0.032) mg
- Tmax_Rate (VU319 120 mg oral, SAD): 8.5 (3.5, 18.0) h
- Max_Rate (maximum observed excretion rate) [1]: 0.0025 (0.0011) mg/h
- Total Ae [1]: 0.068 (0.026) mg
- Tmax_Rate [1]: 8.5 (3.5, 30) h
- Max_Rate (maximum observed excretion rate) [2]: 0.005 (0.003) mg/h
- Total %fe [2]: 0.075 (0.028) %
- Total Ae [2]: 0.091 (0.034) mg
- Tmax_Rate [2]: 6.0 (1.0, 8.5) h
- Max_Rate (maximum observed excretion rate) (VU319 240 mg oral, SAD): 0.0053 (0.0024) mg/h
- Total %fe (VU319 240 mg oral, SAD): 0.039 (0.017) %
- Total Ae (VU319 240 mg oral, SAD): 0.093 (0.042) mg
- Tmax_Rate (VU319 240 mg oral, SAD): 6.0 (3.5, 18.0) h
- Max_Rate (maximum observed excretion rate) (VU319 400 mg oral, SAD): 0.0056 (0.0018) mg/h
- Total %fe (VU319 400 mg oral, SAD): 0.0297 (0.015) %
- Total Ae (VU319 400 mg oral, SAD): 0.12 (0.058) mg
- Tmax_Rate (VU319 400 mg oral, SAD): 6.0 (3.5, 30.0) h
- Max_Rate (maximum observed excretion rate) (VU319 600 mg oral, SAD): 0.0051 (0.0027) mg/h
- Total %fe (VU319 600 mg oral, SAD): 0.024 (0.011) %
- Total Ae (VU319 600 mg oral, SAD): 0.143 (0.065) mg
- Tmax_Rate (VU319 600 mg oral, SAD): 6.0 (3.5, 42.0) h
